The source of these data is article PMC8662641, “Site-Specific Labeling of Endogenous Proteins Using CoLDR Chemistry” (Journal of the American Chemical Society, 2021).

Several values for one entry are separate records, joined by “and”; a condition that tells them apart may be missing. Equal entries are not always repeated.

The nature of one data set: Buffer stability assay. Format: physicochemical. The method, then: A sample of 100 μM of the electrophile (1a–1p) was incubated with 100 μM 4-nitrocyanobenzene as an internal standard in a 100 mM potassium phosphate buffer of pH 8.0. All solvents were bubbled with argon. Reaction mixtures were kept at 37 °C with shaking. After 4 days (unless otherwise mentioned), 5 μL from the reaction mixture was injected into the LC/MS to check the stability of the compounds.

The target of data set [1] is T1, BTK (Homo sapiens, UniProt Q06187). Nature of the data set: Degradation of BTK by a CoLDR PROTAC in Mino cells. Format: cell-based. Details: We incubated Mino B cells with probes containing different tags; endogenous in cells; host or cells: Mino cells. Conditions: Mino cells pretreated 2 h before PROTAC 24 h.
Target sequence in this assay (Q06187 whole entry): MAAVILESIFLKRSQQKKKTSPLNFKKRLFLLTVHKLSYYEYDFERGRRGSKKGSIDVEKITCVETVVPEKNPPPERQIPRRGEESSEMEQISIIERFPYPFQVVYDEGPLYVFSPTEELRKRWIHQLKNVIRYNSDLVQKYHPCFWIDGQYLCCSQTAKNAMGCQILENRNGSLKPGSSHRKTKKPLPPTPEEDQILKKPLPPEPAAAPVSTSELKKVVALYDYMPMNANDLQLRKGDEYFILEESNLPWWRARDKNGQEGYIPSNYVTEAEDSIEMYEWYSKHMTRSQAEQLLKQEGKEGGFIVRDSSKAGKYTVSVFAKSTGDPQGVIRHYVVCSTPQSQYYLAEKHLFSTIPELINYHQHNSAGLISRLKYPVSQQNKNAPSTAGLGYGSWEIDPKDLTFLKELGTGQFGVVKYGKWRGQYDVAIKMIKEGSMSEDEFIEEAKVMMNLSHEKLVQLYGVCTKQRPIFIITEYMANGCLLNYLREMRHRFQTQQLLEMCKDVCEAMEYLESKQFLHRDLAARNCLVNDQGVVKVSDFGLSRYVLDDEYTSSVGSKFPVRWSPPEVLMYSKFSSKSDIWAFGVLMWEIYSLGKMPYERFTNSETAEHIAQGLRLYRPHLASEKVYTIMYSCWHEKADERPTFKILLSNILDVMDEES
Experimental: Cell pellets were washed with ice-cold PBS and lysed using RIPA buffer (Sigma, R0278). […] Samples containing 50 μg of total protein were prepared with 4× LDS sample buffer (NuPAGE, Thermo Fischer Scientific, NP0007) and were then resolved on a 4–20% Bis-Tris gel (GeneScript SurePAGE, M00657). […] The EZ-ECL kit (Biological Industries, 20-500-1000) was used to detect HRP activity.
Cells were harvested for subsequent analysis by immunoblotting of BTK and β-actin. Bands were quantified using ImageJ, BTK signal was normalized to β-actin, and levels in DMSO were defined as 100%. BTK levels versus concentrations were plotted, and the data were fitted to one-phase decay in Prism 8 to calculate the DC50.
Data set [2] deals with T1, BTK. In words: In-gel fluorescence labeling profile in Mino cells. Conditions: 2 h incubation, in-gel fluorescence.
Target sequence in this assay (Q06187 whole entry): as above
The nature of another data set: GSH reactivity assay. Format: physicochemical. The conditions noted are these: for half-life at 100 μM: 5 mM GSH in potassium phosphate buffer/DMF, pH 8, read-out: GSH t1/2. The method, then: A 100 μM (0.5 μL of a 20 mM stock) sample of the electrophile (1a–1m) was incubated with 5 mM GSH (5 μL of a 100 mM stock, freshly dissolved), 5 mM NaOH (to counter the acidity imparted by GSH), and 100 μM 4-nitrocyanobenzene (0.5 μL of a 20 mM stock solution) as an internal standard in 100 mM potassium phosphate buffer pH 8.0 and DMF at a ratio of 9:1, respectively. All solvents were bubbled with argon. Reaction mixtures were kept at 14 °C. Every 1 h 5 μL from the reaction mixture was injected into the LC/MS. The reaction was followed by the peak area of the electrophile normalized by the area of the 4-nitrocyanobenzene (i.e., by the disappearance of the starting material). The natural logarithm of the results was fitted to linear regression, and t1/2 was calculated as t1/2 = ln 2/–slope.

The target in data set [3] is T1, BTK. Also on record: BTK kinase domain was expressed and purified as previously reported; made in house; method as in Reddi et al., J. Am. Chem. Soc. 2021, 143 (13), 4979–4992. The conditions noted are these: ref Reddi et al., J. Am. Chem. Soc. 2021, 143 (13), 4979–4992; cited from earlier work.
Target sequence in this assay (Q06187 402-655 limits assumed): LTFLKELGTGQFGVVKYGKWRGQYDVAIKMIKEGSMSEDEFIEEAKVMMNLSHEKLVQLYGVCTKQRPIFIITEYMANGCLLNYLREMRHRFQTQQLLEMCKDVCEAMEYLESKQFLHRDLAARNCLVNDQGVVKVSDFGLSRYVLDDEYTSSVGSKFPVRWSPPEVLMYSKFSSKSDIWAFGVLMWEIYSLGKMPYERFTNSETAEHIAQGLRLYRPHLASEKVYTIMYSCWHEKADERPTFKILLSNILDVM
In a further data set the target is T2, BTK-1h (Homo sapiens, UniProt Q06187).
T2 construct: The BTK kinase domain was diluted to 2 μM in the buffer, and 2 μM 1h was added; made in house
T2 sequence (Q06187 402-655): as the sequence (Q06187 402-655 limits assumed) above
Nature of the data set: High-throughput screening with 1h-labeled BTK. Type of data set: binding. Conditions: Dataset S2A; 200 μM compound, BTK-1h, 32 °C, 10 min. The method, then:
The collection was composed of BTK binding compounds obtained in our previous luminescence screen[37] (Data set S2). […] The resulting BTK-1h (50 μL) was added to the inhibitors.

The mark [4] stands for this setting: phosphate buffer pH 8, 37 °C, in 2 days.

`C=C(CN1CCC[C@@H](n2nc(-c3ccc(Oc4ccccc4)cc3)c3c(N)ncnc32)C1)C(=O)NCCOCCOCCOCCOCCC(=O)Nc1cccc2c1CN(C1CCC(=O)NC1=O)C2=O` (some centres unmarked) [1p]: the water adduct formed in the data set “Buffer stability assay” (PBS buffer pH 8, 37 °C) is on record as 5%.
On to `C=C(CN1CCC[C@@H](n2nc(-c3ccc(Oc4ccccc4)cc3)c3c(N)ncnc32)C1)C(=O)NCCN` [1e], for which the Ibr-H elimination in “Buffer stability assay” (phosphate buffer pH 8, 37 °C, after 4 days) turned out to be 25%.
For `O=C1CCC(N2C(=O)c3cccc(O)c3C2=O)C(=O)N1` (centres unmarked) [thalidomide-OH], the “rescue of 1n-induced BTK degradation” value at BTK [1] is given as “able to rescue the degradation”.
Consider `C#CCCCCC(=O)NC1CCN(C(=O)C(=C)CN2CCC[C@@H](n3nc(-c4ccc(Oc5ccccc5)cc4)c4c(N)ncnc43)C2)CC1` [1d], for which the “labeling of BTK in live Mino cells” value at BTK [2] is given as “labeled BTK with more selectivity”. For the same compound, the half-life at 100 μM in the data set “GSH reactivity assay” (100 μM compound) was > 100 h. Also, in the data set “GSH reactivity assay” (5 mM GSH, pH 8), the “less reactive toward GSH than ibrutinib” value is > 20 fold.
For `C=C(CN1CCC[C@@H](n2nc(-c3ccc(Oc4ccccc4)cc3)c3c(N)ncnc32)C1)C(=O)OCC` [1a], the hydrolysis/elimination in the data set “Buffer stability assay” (PBS buffer pH 8, 37 °C, in two days) worked out at 100%. For the same compound, in “Buffer stability assay” (setting [4]), the elimination stood at 50% and the hydrolysis is 50%. The “time to complete reaction with GSH” value in “GSH reactivity assay” (100 μM compound, 5 mM GSH, pH 8, 14 °C) is recorded as ≤ 10 min. Further, the half-life at 100 μM in “GSH reactivity assay” (100 μM compound) is < 0.167 h.
For `CN(C)C/C=C/C(=O)Nc1cc2c(Nc3ccc(F)c(Cl)c3)ncnc2cc1O[C@H]1CCOC1` [PCM-0094907-003], the “BTK Inhibition reported in luminescence assay*” value (“BTK Inhibition reported” below) at BTK [3] was 84.8. Further, at BTK-1h, the “FI (650)/FI (620)” value was found to be 0.9254 and the “FI (BTK-1h)/FI (BTK-1h+Inhibitor) at 620 nm” value is listed as 1.084.
For the compound `Nc1ccc(O)cc1` [PCM-0216110-001], the “BTK Inhibition reported” value at BTK [3] is recorded as 82.6. On BTK-1h, the “FI (650)/FI (620)” value came to 1.311 and the “FI (BTK-1h)/FI (BTK-1h+Inhibitor) at 620 nm” value was 1.005.
Take `C=CC(=O)Nc1cccc(Nc2nc(Nc3ccc(OCCOC)cc3)ncc2F)c1` [PCM-0095787-002]: the “BTK Inhibition reported” value on BTK [3] is listed as 90.3. Also, at BTK-1h, the “FI (650)/FI (620)” value is on record as 1.569 and the “FI (BTK-1h)/FI (BTK-1h+Inhibitor) at 620 nm” value stood at 1.288.
With `O=S(=O)([O-])c1ccc2cc(N=Nc3cc(S(=O)(=O)[O-])c4cccnc4c3O)ccc2c1.[Na+].[Na+]` [PCM-0215685-001], on BTK [3], the “BTK Inhibition reported” value was 54.1. Also, on BTK-1h, the “FI (650)/FI (620)” value is on record as 1.281 and the “FI (BTK-1h)/FI (BTK-1h+Inhibitor) at 620 nm” value came to 1.027.
Take `CC(O)C(=O)O.CN1CCN(c2ccc3nc(-c4c(N)c5c(F)cccc5[nH]c4=O)[nH]c3c2)CC1.O` [PCM-0094915-004]: on BTK [3], the “BTK Inhibition reported” value is on record as 53.8. On BTK-1h, the “FI (650)/FI (620)” value is 1.048 and 1.073; the “FI (BTK-1h)/FI (BTK-1h+Inhibitor) at 620 nm” value is 1.015 and 1.028.
As to `COc1cc(N2CCC(N(C)C)CC2)ccc1Nc1ncc(Cl)c(Nc2ccccc2P(C)(C)=O)n1` [PCM-0215177-001], the “BTK Inhibition reported” value on BTK [3] is 64.8. Besides, on BTK-1h, the “FI (650)/FI (620)” value was determined as 1.083 and the “FI (BTK-1h)/FI (BTK-1h+Inhibitor) at 620 nm” value is on record as 1.158.
As to `N#CC(C#N)=Cc1ccc(O)c(O)c1` [PCM-0064867-001], the “BTK Inhibition reported” value at BTK [3] is given as 54.5. On BTK-1h, the “FI (650)/FI (620)” value amounted to 0.9306 and the “FI (BTK-1h)/FI (BTK-1h+Inhibitor) at 620 nm” value amounted to 1.013.
`CCCCCCCCCCCCCCCC(=O)O[C@@H]1[C@@H](O)[C@@H](O)[C@@H]([C@H](NC(=O)[C@@H]2C[C@@H](CCC)CN2C)[C@H](C)Cl)O[C@@H]1SC.Cl` [PCM-0215167-001]: on BTK [3], the “BTK Inhibition reported” value is 73.2. Moreover, on BTK-1h, the “FI (650)/FI (620)” value came out at 0.5899 and the “FI (BTK-1h)/FI (BTK-1h+Inhibitor) at 620 nm” value is 0.9902.
With `CC(=O)Nc1nc(-c2cccc(NS(=O)(=O)c3cccc4c(N(C)C)cccc34)c2)cs1` [PCM-0215679-001], at BTK [3], the “BTK Inhibition reported” value was 97.3. Besides, at BTK-1h, the “FI (650)/FI (620)” value came out at 1.491 and the “FI (BTK-1h)/FI (BTK-1h+Inhibitor) at 620 nm” value is recorded as 1.033.
Regarding `NC(=O)c1cnc2[nH]ccc2c1NC1[C@@H]2CC3C[C@H]1CC(O)(C3)C2` (some centres unmarked) [PCM-0215550-001], on BTK [3], the “BTK Inhibition reported” value is given as 94.5. On BTK-1h, the “FI (650)/FI (620)” value was found to be 1.093 and the “FI (BTK-1h)/FI (BTK-1h+Inhibitor) at 620 nm” value amounted to 1.086.
Regarding `CCCCCC/C=C\CCCCCCCc1cccc(O)c1C(=O)O` [PCM-0216327-001], on BTK [3], the “BTK Inhibition reported” value was 84.2. At BTK-1h, the “FI (650)/FI (620)” value is 3.101 and the “FI (BTK-1h)/FI (BTK-1h+Inhibitor) at 620 nm” value was 1.308.
As for `NCC(=O)Nc1ccc(-n2nc(C(F)(F)F)cc2-c2ccc3c(ccc4ccccc43)c2)cc1` [PCM-0094886-003], the “BTK Inhibition reported” value at BTK [3] was 70.3. Further, at BTK-1h, the “FI (650)/FI (620)” value came out at 1.037 and the “FI (BTK-1h)/FI (BTK-1h+Inhibitor) at 620 nm” value is listed as 1.095.
`Cc1[nH]c(/C=C2\C(=O)Nc3ccccc32)c(C)c1CCC(=O)O` [PCM-0095149-002]: at BTK [3], the “BTK Inhibition reported” value is 52.4. In addition, on BTK-1h, the “FI (650)/FI (620)” value came out at 0.9795 and the “FI (BTK-1h)/FI (BTK-1h+Inhibitor) at 620 nm” value is reported as 1.036.
Take `CN1c2ccccc2C(=O)Nc2cnc(Nc3ccc(N4CCC(O)CC4)cc3)nc21` [PCM-0215745-001]: the “BTK Inhibition reported” value at BTK [3] is recorded as 93.8. At BTK-1h, the “FI (650)/FI (620)” value is on record as 1.794 and the “FI (BTK-1h)/FI (BTK-1h+Inhibitor) at 620 nm” value is 1.194.
Take `CS(=O)(=O)O.O=C(Nc1cccc(Cl)c1)Nc1ncc(CCNc2ncnc3ccsc23)s1` [PCM-0094983-002]: at BTK [3], the “BTK Inhibition reported” value is 73.1. On BTK-1h, the “FI (650)/FI (620)” value stood at 1.066 and the “FI (BTK-1h)/FI (BTK-1h+Inhibitor) at 620 nm” value is 1.085.
Regarding `CC(C)N1CCN(Cc2cnc(-c3cc(-c4cccc5[nH]ccc45)cc4[nH]ncc34)o2)CC1` [PCM-0213407-002], the “BTK Inhibition reported” value at BTK [3] is on record as 51.7. Also, on BTK-1h, the “FI (650)/FI (620)” value came out at 0.9167 and the “FI (BTK-1h)/FI (BTK-1h+Inhibitor) at 620 nm” value is given as 1.042.
